# Where two headings read alike, the source gives them in different places.
# Experiments:
# Type in all cases: in vivo
# [1] = tested on: surinam grass (Brachiaria decumbens); assay: Test C pre-/postemergence: surinam grass
# Summary of the method: (§1)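 Preemergence on seeds in loam/sand, postemergence on 2–18 cm (1–4-leaf) plants in peat-based medium; compounds in non-phytotoxic solvent with surfactant. After 13–15 days in greenhouse, visual rating versus controls, 0 (no effect) to 100 (complete control).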
# [2] = tested on: cocklebur (common cocklebur, Xanthium strumarium); assay: Test C pre-/postemergence: cocklebur
# Summary of the method: as §1
# [3] = tested on: windgrass (Apera spica-venti); assay: Test C postemergence: windgrass
# Summary of the method: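 Crop and weed plants were grown in peat-vermiculite medium and treated postemergence at the 1- to 4-leaf stage (2-18 cm tall). After 13-15 days in a greenhouse, each species was rated visually against untreated controls on a 0-100 scale (0 no effect, 100 complete control).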
# [4] = tested on: wheat, winter (winter wheat, Triticum aestivum); assay: Test D pre-/postemergence: wheat, winter
# Summary of the method: (§2)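 Species were sown in silt loam and sprayed preemergence, or grown in peat/vermiculite medium and sprayed postemergence at the 1- to 4-leaf stage (2–18 cm), with compounds in a surfactant-containing solvent. Injury was visually rated against untreated controls after 14–21 days, on a 0 (no effect) to 100 (complete control) scale.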
# [5] = tested on: ducksalad (Heteranthera limosa); assay: Test C flooded paddy test: ducksalad; settings: Heteranthera limosa, scale 0 to 100 (0 no effect, 100 complete control), read-out: Plant response rating, Ducksalad; for pest or weed control at 125 g/ha: 125 g ai/ha; for pest or weed control at 250 g/ha: 250 g ai/ha; for pest or weed control at 31 g/ha: 31 g ai/ha; for pest or weed control at 62 g/ha: 62 g ai/ha
# Summary of the method: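 Plants were grown to the 2-leaf stage, pots flooded to 3 cm above soil, and test compounds applied directly to the paddy water, with that depth held throughout. After 13 to 15 days in a greenhouse, injury was visually rated against controls on a 0 (no effect) to 100 (complete control) scale.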
# [6] = tested on: foxtail, green (green foxtail, Setaria viridis); assay: Test C pre-/postemergence: foxtail, green
# Summary of the method: as §1
# [7] = tested on: bromegrass, downy (downy bromegrass, Bromus tectorum); assay: Test C pre-/postemergence: bromegrass, downy
# Summary of the method: as §1
# [8] = tested on: barley, spring (spring barley, Hordeum vulgare); assay: Test D pre-/postemergence: barley, spring
# Summary of the method: as §2
# [9] = tested on: field violet (Viola arvensis); assay: Test D pre-/postemergence: field violet
# Summary of the method: as §2
# [10] = Postemergence, 31 g ai/ha, scale 0 to 100 (0 no effect, 100 complete control)
# [11] = Postemergence, 62 g ai/ha, scale 0 to 100 (0 no effect, 100 complete control)
# [12] = Postemergence, 125 g ai/ha, scale 0 to 100, 0 no effect, 100 complete control
# [13] = Postemergence, 250 g ai/ha, scale 0 to 100
# [14] = Preemergence, 31 g ai/ha, scale of 0 to 100, 0 is no effect, 100 is complete control
# [15] = Preemergence, 62 g ai/ha, scale of 0 to 100, 0 is no effect, 100 is complete control
# [16] = Preemergence, 125 g ai/ha, scale 0 to 100, 0 no effect, 100 complete control
# [17] = Preemergence, 250 g ai/ha, scale 0 to 100, 0 no effect, 100 complete control
# [18] = Preemergence, 62 g ai/ha, scale 0 to 100, 0 no effect, 100 complete control
# [19] = 31 g ai/ha, scale 0 to 100 (0 no effect, 100 complete control)
# [20] = 62 g ai/ha, scale 0 to 100 (0 no effect, 100 complete control)
# [21] = 125 g ai/ha, scale 0 to 100, 0 no effect, 100 complete control
# [22] = Postemergence, 250 g ai/ha, scale 0 to 100 (0 no effect, 100 complete control)
# [23] = Postemergence, 16 g ai/ha, scale 0 to 100
# [24] = Preemergence, 16 g ai/ha, scale 0 to 100 (0 no effect, 100 complete control)
# [25] = Preemergence, 31 g ai/ha, scale 0 to 100 (0 no effect, 100 complete control)
# [26] = Preemergence, 62 g ai/ha, scale 0 to 100
# [27] = Preemergence, 125 g ai/ha, scale 0 to 100
# [28] = Preemergence, 250 g ai/ha, scale 0 to 100
# [29] = Flood (flooded paddy test), visual rating after 13 to 15 days
compound,measurement,setting,value
"Cc1nn(-c2ccc(F)cc2)nc1Oc1ccnc(C(F)(F)F)c1 [Compound 129, 4-[[2-(4-fluorophenyl)-5-methyl-2H-1,2,3-triazol-4-yl]oxy]-2-(trifluoromethyl)pyridine]","Plant response rating, Surinam Grass",[1]; [10],45
same,"Plant response rating, Surinam Grass",[1]; [11],45
same,"Plant response rating, Surinam Grass",[1]; [12],50
same,"Plant response rating, Surinam Grass",[1]; [13],60
same,"Plant response rating, Surinam Grass",[1]; [14],95
same,"Plant response rating, Surinam Grass",[1]; [15],95
same,"Plant response rating, Surinam Grass",[1]; [16],98
same,"Plant response rating, Surinam Grass",[1]; [17],98
same,"Plant response rating, Cocklebur",[2]; [10],5
same,"Plant response rating, Cocklebur",[2]; [11],10
same,"Plant response rating, Cocklebur",[2]; [12],15
same,"Plant response rating, Cocklebur",[2]; [13],25
same,"Plant response rating, Cocklebur",[2]; [14],0
same,"Plant response rating, Cocklebur",[2]; [18],0
same,"Plant response rating, Cocklebur",[2]; [16],0
same,"Plant response rating, Cocklebur",[2]; [17],0
same,"Plant response rating, Windgrass",[3]; [19],60
same,"Plant response rating, Windgrass",[3]; [20],80
same,"Plant response rating, Windgrass",[3]; [21],85
same,"Plant response rating, Windgrass","[3]; 250 g ai/ha, scale 0 to 100",100
same,"Plant response rating: Wheat, Winter",[4]; [10],5
same,"Plant response rating: Wheat, Winter",[4]; [11],10
same,"Plant response rating: Wheat, Winter",[4]; [12],20
same,"Plant response rating: Wheat, Winter",[4]; [22],20
same,"Plant response rating, Wheat, Winter",[4]; [23],5
same,"Plant response rating, Wheat, Winter",[4]; [24],0
same,"Plant response rating, Wheat, Winter",[4]; [25],0
same,"Plant response rating, Wheat, Winter",[4]; [26],0
same,"Plant response rating, Wheat, Winter",[4]; [27],5
same,"Plant response rating, Wheat, Winter",[4]; [28],10
same,pest or weed control at 125 g/ha,[5]; [29],80%
same,pest or weed control at 250 g/ha,[5]; [29],90%
same,pest or weed control at 31 g/ha,[5]; Flood,70%
same,pest or weed control at 62 g/ha,[5]; Flood,75%
same,"Plant response rating, Foxtail, Green",[6]; [10],85
same,"Plant response rating, Foxtail, Green",[6]; [11],95
same,"Plant response rating, Foxtail, Green",[6]; [12],95
same,"Plant response rating, Foxtail, Green",[6]; [13],95
same,"Plant response rating, Foxtail, Green",[6]; [14],90
same,"Plant response rating, Foxtail, Green",[6]; [15],90
same,"Plant response rating, Foxtail, Green",[6]; [16],90
same,"Plant response rating, Foxtail, Green",[6]; [17],90
same,"Plant response rating, Bromegrass, Downy",[7]; [10],35
same,"Plant response rating, Bromegrass, Downy",[7]; [11],35
same,"Plant response rating, Bromegrass, Downy",[7]; [12],40
same,"Plant response rating, Bromegrass, Downy",[7]; [13],40
same,"Plant response rating, Bromegrass, Downy",[7]; [14],30
same,"Plant response rating, Bromegrass, Downy",[7]; [18],80
same,"Plant response rating, Bromegrass, Downy",[7]; [16],95
same,"Plant response rating, Bromegrass, Downy",[7]; [17],100
same,"Plant response rating: Barley, Spring",[8]; [10],5
same,"Plant response rating: Barley, Spring",[8]; [11],5
same,"Plant response rating: Barley, Spring",[8]; [12],10
same,"Plant response rating: Barley, Spring",[8]; [22],10
same,"Plant response rating, Barley, Spring",[8]; [23],5
same,"Plant response rating, Barley, Spring",[8]; [24],0
same,"Plant response rating, Barley, Spring",[8]; [25],0
same,"Plant response rating, Barley, Spring",[8]; [26],5
same,"Plant response rating, Barley, Spring",[8]; [27],15
same,"Plant response rating, Barley, Spring",[8]; [28],20
same,Plant response rating: Field Violet,[9]; [10],100
same,Plant response rating: Field Violet,[9]; [11],100
same,Plant response rating: Field Violet,[9]; [12],100
same,Plant response rating: Field Violet,[9]; [22],80
same,"Plant response rating, Field Violet",[9]; [23],40
same,"Plant response rating, Field Violet",[9]; [24],100
same,"Plant response rating, Field Violet",[9]; [25],100
same,"Plant response rating, Field Violet",[9]; [26],100
same,"Plant response rating, Field Violet",[9]; [27],100
same,"Plant response rating, Field Violet",[9]; [28],100
"Cc1nn(-c2ccc(F)cc2)nc1Cc1ccnc(C(F)(F)F)c1 [Compound 16, 4-[[2-(4-fluorophenyl)-5-methyl-2H-1,2,3-triazol-4-yl]methyl]-2-(trifluoromethyl)pyridine]","Plant response rating, Surinam Grass",[1]; [10],5
same,"Plant response rating, Surinam Grass",[1]; [11],5
same,"Plant response rating, Surinam Grass",[1]; [12],10
same,"Plant response rating, Surinam Grass",[1]; [13],45
same,"Plant response rating, Cocklebur",[2]; [10],35
same,"Plant response rating, Cocklebur",[2]; [11],45
same,"Plant response rating, Cocklebur",[2]; [12],45
same,"Plant response rating, Cocklebur",[2]; [13],45
same,"Plant response rating, Windgrass",[3]; [19],45
same,"Plant response rating, Windgrass",[3]; [20],50
same,"Plant response rating, Windgrass",[3]; [21],50
same,"Plant response rating, Windgrass","[3]; 250 g ai/ha, scale 0 to 100",50
same,"Plant response rating: Wheat, Winter",[4]; [10],10
same,"Plant response rating: Wheat, Winter",[4]; [11],15
same,"Plant response rating: Wheat, Winter",[4]; [12],20
same,"Plant response rating: Wheat, Winter",[4]; [22],25
same,"Plant response rating, Wheat, Winter",[4]; [23],5
same,"Plant response rating, Wheat, Winter",[4]; [24],0
same,"Plant response rating, Wheat, Winter",[4]; [25],0
same,"Plant response rating, Wheat, Winter",[4]; [26],0
same,"Plant response rating, Wheat, Winter",[4]; [27],0
same,"Plant response rating, Wheat, Winter",[4]; [28],0
same,pest or weed control at 62 g/ha,[5]; [29],85%
same,pest or weed control at 125 g/ha,[5]; [29],95%
same,pest or weed control at 250 g/ha,[5]; [29],100%
same,pest or weed control at 31 g/ha,[5]; Flood,70%
same,"Plant response rating, Foxtail, Green",[6]; [10],30
same,"Plant response rating, Foxtail, Green",[6]; [11],98
same,"Plant response rating, Foxtail, Green",[6]; [12],98
same,"Plant response rating, Foxtail, Green",[6]; [14],100
same,"Plant response rating, Foxtail, Green",[6]; [15],100
same,"Plant response rating, Foxtail, Green",[6]; [16],100
same,"Plant response rating, Foxtail, Green",[6]; [17],100
same,"Plant response rating, Bromegrass, Downy",[7]; [10],15
same,"Plant response rating, Bromegrass, Downy",[7]; [11],15
same,"Plant response rating, Bromegrass, Downy",[7]; [12],25
same,"Plant response rating, Bromegrass, Downy",[7]; [13],25
same,"Plant response rating, Bromegrass, Downy",[7]; [14],5
same,"Plant response rating, Bromegrass, Downy",[7]; [18],10
same,"Plant response rating, Bromegrass, Downy",[7]; [16],50
same,"Plant response rating, Bromegrass, Downy",[7]; [17],100
same,"Plant response rating: Barley, Spring",[8]; [10],15
same,"Plant response rating: Barley, Spring",[8]; [11],15
same,"Plant response rating: Barley, Spring",[8]; [12],20
same,"Plant response rating: Barley, Spring",[8]; [22],35
same,"Plant response rating, Barley, Spring",[8]; [23],5
same,"Plant response rating, Barley, Spring",[8]; [24],0
same,"Plant response rating, Barley, Spring",[8]; [25],0
same,"Plant response rating, Barley, Spring",[8]; [26],5
same,"Plant response rating, Barley, Spring",[8]; [27],5
same,"Plant response rating, Barley, Spring",[8]; [28],5
same,Plant response rating: Field Violet,[9]; [10],20
same,Plant response rating: Field Violet,[9]; [11],30
same,Plant response rating: Field Violet,[9]; [12],70
same,Plant response rating: Field Violet,[9]; [22],80
same,"Plant response rating, Field Violet",[9]; [23],0
same,"Plant response rating, Field Violet",[9]; [24],0
same,"Plant response rating, Field Violet",[9]; [25],30
same,"Plant response rating, Field Violet",[9]; [26],80
same,"Plant response rating, Field Violet",[9]; [27],90
same,"Plant response rating, Field Violet",[9]; [28],100
